Laboratory results from patent US20140094414A1, “COMPOSITION FOR PREVENTING OR TREATING NEURODEGENERATIVE DISEASE INCLUDING BIOACTIVE PEPTIDE AS EFFECTIVE COMPONENT” (PUKYONG NATIONAL UNIVERSITY INDUSTRY-UNIVERSITY CO, priority 2012, published 2014).
No end group written: not given here.

What was measured:
[1] = system: BV2 cells, murine microglia; test: Cytotoxicity, MTT assay in BV2 cells; format: cell-based; conditions: for cytotoxicity in BV2 cell: 10, 50, 100 μM, 24 and 48 hours
Description: Cytoprotective effect was determined by MTT reduction assay. […] After incubations for 24 hours and 48 hours, the incubated cells were washed with PBS, 100 μl of MTT (0.5 mg/ml final concentration) was added to each wells, and incubation was continued for another 4 hours for a reduction of MTT. […] Relative cell viability was calculated as a percentage compared with the absorbance of the untreated control group.

[2] = system: PC12 cells co-cultured with BV2 cells; test: Co-culture of Aβ42-activated BV2 cells and PC12 cells, MTT assay; conditions: 100 μM peptide, 48 hours, 5 uM Aβ42
Description: For the co-culture of microglia and PC12 cells, which has been employed to assess the neurotoxin effect of activated microglia, microglia was first seeded onto cell culture inserts (pore size of 0.2 μm; SPL, Korea). After overnight incubation, microglia were left untreated or exposed 5 uM Aβ42 in the presence or absence of peptides for 24 h. Afterwards, the microglial cells were co-cultured with PC12 cells by transferring the culture inserts containing microglia onto PC12 cell monolayers (see FIG. 15).
In order to confirm cell viability of co-cultured PC12 cell, MTT assay was performed.

[3] = system: nerve cells-differentiated PC12 cells
Description: The present inventors induced a nerve toxin in PC12 cells by differentiating PC12 cells into nerve cells through treating with NGF, and then treating to the differentiated PC12 cells with 20 μM of Aβ42 for 24 hours.
Cytoprotective effect was determined by MTT reduction assay. […] After incubation for 24 hours, 100 μl of MTT (1 mg/ml final concentration) was added to each of wells and incubation was continued for another 4 hours. MTT is used as an indicator of cell viability through its mitochondrial reduction to formazan. Mitochondrial succinate dehydrogenase in live cells converts MTT into visible formazan crystals during incubation. The formazan crystals were then solubilized in DMSO and the absorbance was measured at 540 nm by using enzyme-linked immunosorbent assay (ELISA) microplate reader (Tecan GmbH, Austria). Relative cell viability was calculated compared with the absorbance of the untreated control group.

[4] = system: NO; test: NO production, Griess reaction in Aβ42-stimulated BV2 cells; format: cell-based, murine; conditions: stimulation with Aβ42 alone (control), 1 μM 48 h
Description: NO levels in the cultured BV2 cells' supernatants were measured by the Griess reaction. In brief, BV2 cells were pre incubated overnight in 24-well plates using DMEM without phenol red at a density 2×10^5 cells/ml, followed by the treatment with the HIP-1 peptide of the present invention having various concentrations (10, 50, 100 μM) as a sample for 6 h. After 6 h, the NO production was stimulated by adding Aβ42 (1 μM final concentration) and incubated for further 48 h. Then 50 μl of culture supernatants from each samples was mixed with the same volume of the Griess reagent [1% sulfanilamide/0.1% N-1-naphthyl]-ethylenediamine dihydrochloride/2.5% phosphoric acid] following the incubation for 15 min. Absorbance values were read at 540 nm using ELISA microplate reader (Tecan GmbH, Austria). Blank was not treated, and control was activated BV2 cells by exposing Aβ42 without the HIP-1 peptide of the present invention.

With FLHDVQ [HTP-2, FLHDVQ] the “cytotoxicity in BV2 cell” value [1] was “did not exhibit cytotoxicity” and the “cell viability of PC12 cells co-cultured with BV2 cells” value [2] was 75.19±2.55%.
With GTEDELDK [HTP-1] the “cytotoxicity in BV2 cell” value [1] was “did not exhibit cytotoxicity” and the “cell viability of PC12 cells co-cultured with BV2 cells” value [2] was 82.49±3.05%.
With amyloid-beta 42 [Aβ42] the “cell viability of nerve cell-differentiated PC12 cells” value ([3]; 10 μM Aβ42, FIG. 2) was “greatly decreased”, the PC12 cell viability ([3]; 20 μM Aβ42 for 24 h) was “reduction” and the “toxicity of Aβ42 in BV2 cells” value ([1]; Aβ42 0.1, 0.5, 1, 5, 10 μM) was “no toxicities”. The “production of NO” value [4] was 24.59 ± 2.54 µM.
